Measured values published in US20250221966A1, “RXFP1 AGONISTS” (BRISTOL-MYERS SQUIBB COMPANY, priority 2021, published 2025).

Molecular target: T1, human RXFP1 (Homo sapiens, UniProt Q9HBX9)
T1 construct: expressed in transfected cells
T1 sequence (Q9HBX9 1-757): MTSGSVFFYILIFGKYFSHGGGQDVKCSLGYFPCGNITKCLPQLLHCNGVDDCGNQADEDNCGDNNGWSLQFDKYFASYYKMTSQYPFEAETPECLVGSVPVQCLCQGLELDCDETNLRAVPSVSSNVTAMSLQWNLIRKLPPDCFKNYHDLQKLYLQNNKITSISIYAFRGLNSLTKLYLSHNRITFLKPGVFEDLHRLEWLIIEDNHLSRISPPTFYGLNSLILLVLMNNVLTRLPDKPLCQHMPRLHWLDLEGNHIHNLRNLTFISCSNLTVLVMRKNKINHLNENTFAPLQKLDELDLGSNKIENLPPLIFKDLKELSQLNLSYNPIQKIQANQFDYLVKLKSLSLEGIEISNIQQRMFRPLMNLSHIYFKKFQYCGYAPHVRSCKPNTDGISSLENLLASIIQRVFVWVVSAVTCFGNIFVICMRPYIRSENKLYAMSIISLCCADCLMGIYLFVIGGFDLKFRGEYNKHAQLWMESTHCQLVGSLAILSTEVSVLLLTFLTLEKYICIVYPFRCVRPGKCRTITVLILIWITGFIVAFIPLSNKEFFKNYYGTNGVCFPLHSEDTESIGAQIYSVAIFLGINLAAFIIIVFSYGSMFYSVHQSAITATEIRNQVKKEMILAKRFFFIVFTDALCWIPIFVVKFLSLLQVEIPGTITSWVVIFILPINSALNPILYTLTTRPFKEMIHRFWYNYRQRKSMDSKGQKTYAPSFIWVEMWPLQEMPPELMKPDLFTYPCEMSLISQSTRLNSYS
Assay: RXFP1 cAMP assay (hRXFP1 HEK293 cAMP assay, HTRF)
Assay type: cell-based
Details: HEK293 cells stably expressing human RXFP1, 30 min at room temperature, read-out: cAMP hRXFP1 HEK293 Assay EC50
Experimental: RXFP1 Cyclic Adenosine Monophosphate (cAMP) Assays. […] Cells were dissociated and suspended in assay buffer. The assay buffer was HBSS buffer (with calcium and magnesium) containing 20 mM HEPES, 0.05% BSA, and 0.5 mM IBMX. Cells (3000 cells per well, except 1500 cell per well for HEK293 cells stably expressing human RXFP1) were added to 384-well Proxiplates (Perkin-Elmer). Cells were immediately treated with test compounds in DMSO (2% final) at final concentrations in the range of 0.010 nM to 50 μM. Cells were incubated for 30 min at room temperature. The level of intracellular cAMP was determined using the HTRF HiRange cAMP assay reagent kit (Cisbio) according to manufacturer's instructions. Solutions of cryptate conjugated anti-cAMP and d2 fluorophore-labelled cAMP were made in a supplied lysis buffer separately. Upon completion of the reaction, the cells were lysed with equal volume of the d2-cAMP solution and anti-cAMP solution. […] The potency and activity of a compound to […] cAMP production was then determined by fitting to a 4-parametric logistic equation from a plot of cAMP level versus compound concentrations.

| EC50 | SMILES |
| --- | --- |
| 8.5 nM | COc1ccc(-c2cccc3c2CN(C(=O)C(C)(C)O)C3)cc1C(=O)N[C@@H]1C2CCC(/C2=C/C2CC2)[C@@H]1C(=O)Nc1ccc(F)c(C(F)(F)F)c1 (some centres unmarked) [compound 889] |
| 1.8 nM | COc1ccc(C2=NO[C@@H]3C[C@H](CO)CN23)cc1C(=O)N[C@H]1[C@@H](C(=O)Nc2ccc(F)c(C(F)(F)F)c2)[C@H]2CC[C@@H]1/C2=C\C1CC1 [compound 846] |
| 2.7 nM | COc1ccc(-c2cccc3c2CN(C(=O)N(C)c2ccccc2)C3)cc1C(=O)N[C@H]1[C@@H](C(=O)Nc2ccc(F)c(C(F)(F)F)c2)[C@H]2CC[C@@H]1/C2=C\C1CC1 [compound 886] |
| 3.1 nM | COc1c(F)cc(C2=NO[C@@H]3C[C@H](CO)CN23)cc1C(=O)N[C@H]1[C@@H](C(=O)Nc2ccc(F)c(C(F)(F)F)c2)[C@H]2CC[C@@H]1/C2=C\C1CC1 [compound 852] |
| 9 nM | COc1ccc(-c2cc(C3=NOC(C(=O)O)C3)ccc2F)cc1C(=O)N[C@H]1[C@@H](C(=O)Nc2ccc(F)c(C(F)(F)F)c2)[C@H]2CC[C@@H]1/C2=C\C1CCCC1 (some centres unmarked) [compound 913] |
| 3.8 nM | COc1c(F)cc(C2=NOC3CC(O)CC23)cc1C(=O)N[C@H]1[C@@H](C(=O)Nc2ccc(F)c(C(F)(F)F)c2)[C@H]2CC[C@@H]1/C2=C\C1CCCC1 (some centres unmarked) [compound 868] |
| 3.6 nM | COc1ccc(-c2cc(C3=NOC4CC(CO)CC34)ccc2F)cc1C(=O)N[C@H]1[C@@H](C(=O)Nc2ccc(F)c(C(F)(F)F)c2)[C@H]2CC[C@@H]1/C2=C\C1CCCC1 (some centres unmarked) [compound 949] |
| 1.2 nM | COc1ccc(-c2cc(C(NC(=O)C3CCOCC3)C(=O)O)ccc2F)cc1C(=O)N[C@H]1[C@@H](C(=O)Nc2ccc(F)c(C(F)(F)F)c2)[C@H]2CC[C@@H]1/C2=C\CC(C)C (some centres unmarked) [compound 941] |
| 3 nM | COc1ccc(C2=NOC3COCC23)cc1C(=O)N[C@H]1[C@@H](C(=O)Nc2cc(C(F)(F)F)c(F)cc2F)[C@H]2CC[C@@H]1/C2=C\C1CC1 (some centres unmarked) [compound 767] |
| 2.2 nM | COc1ccc(-c2cc([C@H](OC(=O)NC3CCC3)C(F)(F)F)ccc2F)cc1C(=O)N[C@@H]1C2CCC(/C2=C/C2CCCC2)[C@@H]1C(=O)Nc1ccc(F)c(C(F)(F)F)c1 (some centres unmarked) [compound 922] |
| 2.1 nM | COc1ccc(C2=NOC3CC(CO)CC23)cc1C(=O)N[C@H]1[C@@H](C(=O)N[C@H](C)C2(C)CC2)[C@H]2CC[C@@H]1/C2=C\c1ccncn1 (some centres unmarked) [compound 807] |
| 1.2 nM | COc1ccc(C2=NOC3CC(C(C)O)CC23)cc1C(=O)N[C@H]1[C@@H](C(=O)Nc2ccc(F)c(C(F)(F)F)c2)[C@H]2CC[C@@H]1/C2=C\C1CC1 (some centres unmarked) [compound 844] |
| 5.1 nM | COc1ccc(-c2cc(C(COC(=O)NC3CCC3)C(F)(F)F)ccc2F)cc1C(=O)N[C@H]1[C@@H](C(=O)Nc2ccc(F)c(C(F)(F)F)c2)[C@H]2CC[C@@H]1/C2=C\C1CC1 (some centres unmarked) [compound 878] |
| 3.5 nM | COc1ccc(C2=NO[C@H]3C[C@H](CO)C[C@@H]23)cc1C(=O)N[C@H]1[C@@H](C(=O)NC23CC(C)(C2)C3)[C@H]2CC[C@@H]1/C2=C\C[C@@H](O)C(F)(F)F [compound 831] |

Further lines, the compound ahead of its results:

| SMILES | EC50 |
| --- | --- |
| COc1ccc(N2CCC(NC(=O)OC(C)(C)C)C2)cc1C(=O)N[C@@H]1C2CCC(/C2=C/C(F)(F)F)[C@@H]1C(=O)Nc1ccc(F)c(C(F)(F)F)c1 (some centres unmarked) [compound 334] | 1370 nM |
| CCOC(=O)/C=C1\C2CCC1[C@H](C(=O)Nc1ccc(F)c(C(F)(F)F)c1)[C@@H]2NC(=O)c1cc(F)c(F)cc1OC (some centres unmarked) [compound 7] | 270 nM |
| COc1ccc(C2=NOC3CC(CO)CC23)cc1C(=O)N[C@H]1[C@@H](C(=O)N[C@H](C)C2(C)CC2)[C@H]2CC[C@@H]1/C2=C\c1csc(C)n1 (some centres unmarked) [compound 742] | 4.7 nM |
| COc1ccc(-c2cc(CC(=O)O)ccc2F)cc1C(=O)N[C@@H]1C2CCC(C2=C(C)C)[C@@H]1C(=O)Nc1ccc(F)c(C(F)(F)F)c1 (some centres unmarked) [compound 155] | 87 nM |
| C=C/C=C1\C2CCC1[C@H](C(=O)Nc1ccc(F)c(C(F)(F)F)c1)[C@@H]2NC(=O)c1cc(-c2cc(C(=O)NC)ccc2F)ccc1OC (some centres unmarked) [compound 164] | 14 nM |
| CNC(=O)OC(C(=O)NC)c1ccc(F)c(-c2ccc(OC)c(C(=O)N[C@@H]3C4CCC(/C4=C/C4CC4)[C@@H]3C(=O)Nc3ccc(F)c(C(F)(F)F)c3)c2)c1 (some centres unmarked) [compound 235] | 1 nM |
| COc1ccc(-c2cc(C(=O)NC(C)C)ccc2F)cc1C(=O)N[C@@H]1C2CCC(C2=C(C)C)[C@@H]1C(=O)Nc1ccc(F)c(C(F)(F)F)c1 (some centres unmarked) [compound 153] | 140 nM |
| COc1ccc(-c2cc(-c3nnn[nH]3)ccc2F)cc1C(=O)N[C@@H]1C2CCC(/C2=C/c2ccccc2)[C@@H]1C(=O)Nc1ccc(F)c(C(F)(F)F)c1 (some centres unmarked) [compound 152] | 8 nM |
| COc1ccc(C2=NOC3COCC23)cc1C(=O)N[C@H]1[C@@H](C(=O)N[C@H](C)C2(C)CC2)[C@H]2CC[C@@H]1/C2=C\C1CC1 (some centres unmarked) [Example 447] | 0.8 nM |
| CCO/N=C1\C2CCC1[C@H](C(=O)Nc1ccc(F)c(C(F)(F)F)c1)[C@@H]2NC(=O)c1cc(F)c(F)cc1OC (some centres unmarked) [compound 133] | 1700 nM |
| COc1ccc(C2=NOC3CCCCCCC23)cc1C(=O)N[C@H]1[C@@H](C(=O)Nc2ccc(F)c(C(F)(F)F)c2)[C@H]2CC[C@@H]1/C2=C\C1CC1 (some centres unmarked) [compound 537] | 26 nM |
| COc1ccc(-c2cc(CC(=O)O)ccc2F)cc1C(=O)N[C@@H]1C2CCC(/C2=C/C2CC2)[C@@H]1C(=O)Nc1ccc(F)c(C(F)(F)F)c1 (some centres unmarked) [compound 189] | 10 nM |
| COc1ccc(C2=NOC3CC(C(O)C(F)(F)F)CC23)cc1C(=O)N[C@H]1[C@@H](C(=O)Nc2ccc(F)c(C(F)(F)F)c2)[C@H]2CC[C@@H]1/C2=C\C1CC1 (single isomer, unassigned) [Example 489] | 8.5 nM |
| COc1ccc(-c2cc(C(OC(=O)NC(C)(C)C)C(F)(F)F)ccc2F)cc1C(=O)N[C@@H]1C2CCC(/C2=C/C2CC2)[C@@H]1C(=O)Nc1ccc(F)c(C(F)(F)F)c1 (some centres unmarked) [compound 210] | 1 nM |
| COc1ccccc1C(=O)N[C@H]1[C@@H](C(=O)Nc2ccc(F)c(C(F)(F)F)c2)[C@H]2CC[C@@H]1/C2=C\c1ccccc1 [compound 90] | 330 nM |
| COc1ccc(C2=NOC3COCC23)cc1C(=O)N[C@H]1[C@@H](C(=O)NCC2(C)CC2)[C@H]2CC[C@@H]1/C2=C\C1CC1 (some centres unmarked) [compound 522] | 21.1 nM |
| COc1ccc(-c2cccnc2F)cc1C(=O)N[C@H]1[C@@H](C(=O)Nc2ccc(F)c(C(F)(F)F)c2)[C@H]2CC[C@@H]1/C2=C/c1ccccc1 [compound 95] | 420 nM |
| COCCOc1ccc(C2=NOC3COCC23)cc1C(=O)N[C@H]1[C@@H](C(=O)Nc2ccc(F)c(C(F)(F)F)c2)[C@H]2CC[C@@H]1/C2=C\C1CC1 (single isomer, unassigned) [compound 644] | 238 nM |
| COc1ccc(C2=NOC3CC(CO)CC23)cc1C(=O)N[C@H]1[C@@H](C(=O)Nc2ccc(F)c(C(F)(F)F)c2)[C@H]2CC[C@@H]1/C2=C\C1CCCC1 (some centres unmarked) [compound 445] | 0.5 nM |
| COc1cc(C)c(C2=NOC3CC(CO)CC23)cc1C(=O)N[C@H]1[C@@H](C(=O)Nc2ccc(F)c(C(F)(F)F)c2)[C@H]2CC[C@@H]1/C2=C\C1CC1 (some centres unmarked) [compound 738] | 3.3 nM |
| COc1ccc(C2CC3CNS(=O)(=O)C32)cc1C(=O)N[C@H]1[C@@H](C(=O)Nc2ccc(F)c(C(F)(F)F)c2)[C@H]2CC[C@@H]1/C2=C\C1CC1 (single isomer, unassigned) [compound 733] | 6.3 nM |
